13 compounds from patent US20100160255A1, “SPIRO-CYCLIC COMPOUND” (Takeda Pharmaceutical Company Limited, priority 2005, published 2010) can be followed below.

The structures appear in SMILES notation.

The target in one assay is T1, human ACC2 (Homo sapiens, UniProt O00763).
T1 construct: made in house; host or cells: SF-9 insect cells, recombinant baculovirus BAC-ACC2(Nd)
The assay is described as follows: ACC2 inhibitory activity (malachite green absorbance assay, recombinant ACC2(Nd)). It counts as biochemical. The note with it: Table 9; recombinant human ACC2(Nd), N terminal deletion; 30° C.; absorbance 620 nm; read-out: IC50 (ACC2 inhibitory activity). As for the experimental part:
The ACC2 inhibitory activity of the compound of the present invention was evaluated by the following method.
Human ACC2 gene was cloned by PCR using human skeletal muscle cDNA library (Clontech) as a template, and Primer 1 and Primer 2 shown below. Primer 1 and Primer 2 were prepared by adding recognition sequence of restriction enzymes SalI and XbaI based on the information of the base sequence (Genbank Accession U89344) of human ACC2 gene.
PCR was performed using Pyrobest DNA polymerase (TAKARA BIO INC.). The obtained PCR product was cloned to pT7 Blue vector (Novagen) which was, after confirmation of the base sequence, digested with restriction enzymes SalI and XbaI. The obtained DNA fragment was inserted into pFAST-BacHTa (Invitrogen) digested with restriction enzymes SalI and XbaI to give expression plasmid ACC2/pFAST-BacHTa.
A plasmid for expression of ACC2 free of mitochondrial targeting sequence was prepared by PCR using the expression plasmid as a template, and Primer 3 and Primer 4 shown below.
PCR was performed using Pyrobest DNA polymerase (TAKARA BIO INC.). The obtained PCR product was cloned to pT7 Blue vector (Novagen) which was, after confirmation of the base sequence, digested with restriction enzymes SalI and AflII. The obtained DNA fragment was inserted into pFAST-BacHTa (Invitrogen) digested with restriction enzymes SalI and AflII to give expression plasmid ACC2mito7/pFAST-BacHTa.
Using the expression plasmid and BAC-TO-BAC Baculovirus Expression System (Invitrogen), virus stock BAC-ACC2 of recombinant Baculovirus (N terminal deletion (hereinafter Nd)) was prepared.
SF-9 cells (Invitrogen) were sown at 0.5×10^6 cells/mL to insect cell culture medium (2 L, Sf-900II SFM medium (Invitrogen) containing 10% fetal bovine serum (Trace), 50 mg/L gentamicin (Invitrogen) and 0.1% Pluronic F-68 (Invitrogen)), and shaking culture was performed using a Wave Bioreactor (Wave) under the conditions of 27° C., 20 rpm, rocking angle of 6° and oxygen concentration of 30%.
On day 4 of the culture, 3 L of an insect cell culture medium was added, the rocking angle was set to 8°, and the cells were further cultured. On day 5 of the culture, the recombinant Baculovirus BAC-ACC2(Nd) (100 mL) was added, 5 L of the insect cell culture medium was further added, the rocking angle was set to 11°, and the cells were cultured for 3 days. The culture medium was centrifuged at 1000×g for 10 min to give virus-infected cells. The infected cells were washed with phosphate buffered saline (Invitrogen) and centrifuged under the same conditions, and the obtained cells were cryopreserved at −80° C.
The cryopreserved cells were thawed in ice, suspended in 25 mM HEPES buffer (900 mL, pH 7.5) containing 10% Glycerol, 0.13 M NaCl, 1 mM EDTA, 25 mM sodium β-glycerophosphate, 1 mM sodium orthovanadate, added with Complete Protease Inhibitor (Boehringer). The obtained suspension was homogenized 3 times with a Polytron homogenizer (Kinematica) at 20,000 rpm for 30 seconds. The obtained cell disrupt solution was clarified by centrifugation at 31000×g for 60 min and filtrated using a 0.45 μm filter. The filtrate was passed through a column packed with Ni-NTA Super Flow Gel (QIAGEN, 60 mL) at a flow rate of about 5 mL/min. The column was washed with buffer A (50 mM HEPES containing 0.3M NaCl, pH 7.5), further washed with buffer A containing 20 mM Imidazole, and eluted with buffer A containing 100 mM Imidazole. The eluate was concentrated with Vivaspin 20 (Vivascience) having a molecular weight cut off of 30 K. The obtained concentrate was dialyzed against 50 mM HEPES (pH7.5) containing 10 mM MgCl2, 2 mM dithiothreitol, 10 mM tripotassium citrate and 0.3M NaCl. The dialysate was filtered through a 0.22 μm filter to give ACC2(Nd). The obtained ACC2(Nd) was cryopreserved at −80° C. […]

The target in another assay is T2, human ACC1 (Homo sapiens, UniProt Q13085).
T2 construct: made in house; host or cells: SF-9 insect cells, recombinant baculovirus BAC-ACC1
The assay is described as follows: ACC1 inhibitory activity (malachite green absorbance assay, recombinant enzyme). The format is biochemical. Conditions: Table 8; recombinant human ACC1; 30° C.; absorbance 620 nm; read-out: IC50 (ACC1 inhibitory activity). How it is done: The ACC1 inhibitory activity of the compound of the present invention was evaluated by the following method.
Human ACC1 gene was cloned by PCR using human liver cDNA library (Clontech) as a template, and Primer 1 and Primer 2 shown below. Primer 1 and Primer 2 were prepared by adding recognition sequence of restriction enzymes SalI and NotI based on the information of the base sequence (Genbank Accession U19822) of human ACC1 gene.
PCR was performed using Pyrobest DNA polymerase (TAKARA BIO INC.). The obtained PCR product was cloned to pT7 Blue vector (Novagen) which was, after confirmation of the base sequence, digested with restriction enzymes SalI and NotI. The obtained DNA fragment was inserted into pFAST-BacHTc (Invitrogen) digested with restriction enzymes SalI and NotI to give expression plasmid ACC1/pFAST-BacHTc.
Using the expression plasmid and BAC-TO-BAC Baculovirus Expression System (Invitrogen), virus stock BAC-ACC1 of recombinant Baculovirus was prepared.
SF-9 cells (Invitrogen) were sown at 1×10^6 cells/mL to insect cell culture medium (1 L, Sf-900II SFM medium (Invitrogen) containing 10% fetal bovine serum (Trace), 50 mg/L gentamicin (Invitrogen) and 0.1% Pluronic F-68 (Invitrogen)), and shaking culture was performed using a 2 L volume Erlenmeyer flask at 27° C., 100 rpm.
After culturing for 24 hr, the recombinant Baculovirus BAC-ACC1 (10 mL) was added, and the mixture was further cultured for 3 days. The culture medium was centrifuged at 1000×g for 5 min to give virus-infected cells. The infected cells were washed with phosphate buffered saline (Invitrogen) and centrifuged under the same conditions, and the obtained cells were cryopreserved at −80° C.
The cryopreserved cells were thawed in ice, suspended in 25 mM HEPES buffer (100 mL, pH 7.5) containing 10% Glycerol, 0.13 M NaCl, 1 mM EDTA, 25 mM sodium β-glycerophosphate, 1 mM sodium orthovanadate, added with Complete Protease Inhibitor (Boehringer). The obtained suspension was homogenized 3 times with a Polytron homogenizer (Kinematica) at 20,000 rpm for 30 seconds. The obtained cell disrupt solution was clarified by centrifugation at 185700×g for 50 min and filtrated using a 0.45 μm filter. The filtrate was passed through a column packed with Ni-NTA Super Flow Gel (QIAGEN, 12 mL) at a flow rate of about 5 mL/min. The column was washed with buffer A (50 mM HEPES containing 0.3M NaCl, pH 7.5), further washed with buffer A containing 20 mM Imidazole, and eluted with buffer A containing 100 mM Imidazole. The eluate was concentrated with Vivaspin 20 (Vivascience) having a molecular weight cut off of 30 K. The obtained concentrate was dialyzed using Sephadex G-25 (Amersham Bioscience K.K., 358 mL) equilibrated with 50 mM HEPES (pH7.5) containing 10 mM MgCl2, 2 mM dithiothreitol, 10 mM tripotassium citrate and 0.3M NaCl. The dialysate was concentrated with Vivaspin 20 (Vivascience) having a molecular weight cut off of 30 K and the concentrate was filtered through a 0.22 μm filter to give ACC1. The obtained ACC1 was cryopreserved at −80° C.
ACC1 (0.93 mg/ml) obtained in (2) above was diluted to a concentration of 8 μg/ml with an enzyme reaction buffer (50 mM HEPES (pH7.5), 10 mM MgCl2, 10 mM tripotassium citrate, 2 mM dithiothreitol, 0.75 mg/ml fatty acid free BSA), and added to each well of a 384 well assay plate (Nunc 265196) by 10 μl. […]

One may read the IC50 as the concentration that gives 50% inhibition.

T1 sequence (O00763 117-2458 limits assumed): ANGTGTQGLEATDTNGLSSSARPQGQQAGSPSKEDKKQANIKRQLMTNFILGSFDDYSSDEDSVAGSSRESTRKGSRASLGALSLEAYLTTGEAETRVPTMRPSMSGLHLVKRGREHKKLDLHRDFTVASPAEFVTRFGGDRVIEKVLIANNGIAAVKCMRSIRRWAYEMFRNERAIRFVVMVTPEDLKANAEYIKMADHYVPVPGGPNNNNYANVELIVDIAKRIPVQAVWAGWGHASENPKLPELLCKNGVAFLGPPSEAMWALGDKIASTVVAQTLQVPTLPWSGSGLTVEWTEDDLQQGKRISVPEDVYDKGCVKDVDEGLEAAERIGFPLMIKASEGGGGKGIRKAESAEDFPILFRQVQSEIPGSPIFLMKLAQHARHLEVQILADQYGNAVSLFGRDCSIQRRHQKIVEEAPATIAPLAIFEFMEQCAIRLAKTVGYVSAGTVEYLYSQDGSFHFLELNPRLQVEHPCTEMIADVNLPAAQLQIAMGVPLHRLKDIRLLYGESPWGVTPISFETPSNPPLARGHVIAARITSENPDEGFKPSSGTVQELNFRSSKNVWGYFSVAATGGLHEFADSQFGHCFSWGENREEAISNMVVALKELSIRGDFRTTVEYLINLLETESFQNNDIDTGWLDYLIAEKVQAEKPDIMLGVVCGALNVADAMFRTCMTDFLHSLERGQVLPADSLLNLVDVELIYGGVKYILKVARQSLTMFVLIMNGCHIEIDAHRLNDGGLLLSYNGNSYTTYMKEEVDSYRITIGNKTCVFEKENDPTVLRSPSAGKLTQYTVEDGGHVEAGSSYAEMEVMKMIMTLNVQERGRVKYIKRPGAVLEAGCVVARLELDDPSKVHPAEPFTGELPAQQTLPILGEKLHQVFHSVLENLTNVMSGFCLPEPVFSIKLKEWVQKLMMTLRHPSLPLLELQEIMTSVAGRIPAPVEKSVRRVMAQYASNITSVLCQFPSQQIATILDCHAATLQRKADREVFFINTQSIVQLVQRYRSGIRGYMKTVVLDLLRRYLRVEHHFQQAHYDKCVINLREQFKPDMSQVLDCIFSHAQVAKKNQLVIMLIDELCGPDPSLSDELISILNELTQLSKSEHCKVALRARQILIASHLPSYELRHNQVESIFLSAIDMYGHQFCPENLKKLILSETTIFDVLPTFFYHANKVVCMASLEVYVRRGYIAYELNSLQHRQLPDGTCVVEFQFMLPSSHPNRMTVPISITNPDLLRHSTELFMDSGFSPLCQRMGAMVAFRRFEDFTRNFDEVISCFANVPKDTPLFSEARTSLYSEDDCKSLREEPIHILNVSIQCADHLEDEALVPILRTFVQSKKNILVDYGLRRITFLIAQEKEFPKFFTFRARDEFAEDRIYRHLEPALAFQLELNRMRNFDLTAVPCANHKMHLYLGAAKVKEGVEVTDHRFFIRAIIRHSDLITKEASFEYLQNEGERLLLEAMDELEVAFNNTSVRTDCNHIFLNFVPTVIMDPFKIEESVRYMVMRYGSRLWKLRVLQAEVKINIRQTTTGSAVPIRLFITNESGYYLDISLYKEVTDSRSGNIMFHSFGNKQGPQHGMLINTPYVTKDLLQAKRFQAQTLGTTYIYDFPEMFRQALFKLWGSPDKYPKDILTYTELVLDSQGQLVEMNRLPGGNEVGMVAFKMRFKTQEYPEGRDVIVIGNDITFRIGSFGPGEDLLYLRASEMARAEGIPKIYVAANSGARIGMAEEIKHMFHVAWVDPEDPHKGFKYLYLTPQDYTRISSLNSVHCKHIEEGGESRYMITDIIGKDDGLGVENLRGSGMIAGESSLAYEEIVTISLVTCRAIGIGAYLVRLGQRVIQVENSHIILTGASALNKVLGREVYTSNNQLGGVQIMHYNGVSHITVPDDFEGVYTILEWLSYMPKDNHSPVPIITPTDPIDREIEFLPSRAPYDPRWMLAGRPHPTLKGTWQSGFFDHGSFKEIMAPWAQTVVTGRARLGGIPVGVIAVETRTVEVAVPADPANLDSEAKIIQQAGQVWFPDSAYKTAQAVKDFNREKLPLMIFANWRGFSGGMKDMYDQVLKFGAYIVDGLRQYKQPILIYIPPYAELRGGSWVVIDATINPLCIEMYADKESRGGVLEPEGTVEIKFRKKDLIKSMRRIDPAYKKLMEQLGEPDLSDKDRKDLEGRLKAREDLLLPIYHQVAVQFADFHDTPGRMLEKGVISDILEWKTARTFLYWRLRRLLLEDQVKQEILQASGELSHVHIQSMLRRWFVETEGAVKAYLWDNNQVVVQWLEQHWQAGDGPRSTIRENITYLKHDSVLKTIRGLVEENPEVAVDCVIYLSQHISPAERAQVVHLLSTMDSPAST

As to `CCCN1C(=O)OC2(CCCN(C3CCN(C(=O)c4c(NC(N)=O)sc5ccccc45)CC3)C2)C1=O` (centres unmarked) [Example 343, N-(3-{[4-(2,4-dioxo-3-propyl-1-oxa-3,7-diazaspiro[4.5]dec-7-yl)piperidin-1-yl]carbonyl}-1-benzothien-2-yl)urea], the figures for the IC50 at human ACC2 and on human ACC1 were 30 nM and 340 nM, respectively.

As to `CC(C)N1C(=O)CC2(CCCN(C3CCN(C(=O)c4c(NC(N)=O)sc5ccccc45)CC3)C2)C1=O` (centres unmarked) [Example 366, N-(3-{[4-(2-isopropyl-1,3-dioxo-2,7-diazaspiro[4.5]dec-7-yl)piperidin-1-yl]carbonyl}-1-benzothien-2-yl)urea], the IC50 at human ACC2 worked out at 18 nM; on human ACC1, 180 nM.

Regarding `CCN1C(=O)OC2(CCCN(C3CCN(C(=O)c4c(NC(N)=O)sc5ccccc45)CC3)C2)C1=O` (centres unmarked) [Example 229, 1-(3-{[4-(3-ethyl-2,4-dioxo-1-oxa-3,7-diazaspiro[4.5]dec-7-yl)piperidin-1-yl]carbonyl}-1-benzothien-2-yl)urea], the IC50 was 49 nM at human ACC2 and 290 nM on human ACC1.

Regarding `CCNC(=O)Nc1sc(-c2ccccn2)cc1C(=O)N1CCC(N2CCCC3(C2)OC(=O)N(CC)C3=O)CC1` (centres unmarked) [Example 245, 1-ethyl-3-(3-{[4-(3-ethyl-2,4-dioxo-1-oxa-3,7-diazaspiro[4.5]dec-7-yl)piperidin-1-yl]carbonyl}-5-(pyridin-2-yl)-2-thienyl)urea], the IC50 on human ACC2 is 46 nM; on human ACC1, 980 nM.

For the compound `CCN1CCC2(CCCN(C3CCN(C(=O)c4c5ccccc5cc5ccccc45)CC3)C2)C1=O` (centres unmarked) [Example 1, 7-[1-(9-anthrylcarbonyl)piperidin-4-yl]-2-ethyl-2,7-diazaspiro[4.5]decan-1-one], the IC50 worked out at 140 nM on human ACC2 and 1900 nM on human ACC1.

As to `CC(=O)c1cccc(-c2cc(C(=O)N3CCC(N4CCCC5(C4)CC(C)(C)OC5=O)CC3)cc(-c3cccnc3)c2)c1` (centres unmarked) [Example 133, 7-{1-[(3′-acetyl-5-(pyridin-3-yl)biphenyl-3-yl)carbonyl]piperidin-4-yl]-3,3-dimethyl-2-oxa-7-azaspiro[4.5]decan-1-one], the IC50 on human ACC2 came out at 120 nM; at human ACC1 it was 3300 nM.

`CCNC(=O)Nc1sc2ccccc2c1C(=O)N1CCC(N2CCCC3(C2)OC(=O)N(CC)C3=O)CC1` (racemic) [Example 228, N-ethyl-N′-(3-{[4-(3-ethyl-2,4-dioxo-1-oxa-3,7-diazaspiro[4.5]dec-7-yl)piperidin-1-yl]carbonyl}-1-benzothien-2-yl)urea]: the figures for the IC50 at human ACC2 and on human ACC1 were 41 nM and 190 nM, respectively.

For the compound `CCNC(=O)Nc1cnc(-c2ccccc2)cc1C(=O)N1CCC(N2CCCC3(C2)CC(C)(C)OC3=O)CC1` (centres unmarked) [Example 301, N-(4-{[4-(3,3-dimethyl-1-oxo-2-oxa-7-azaspiro[4.5]dec-7-yl)piperidin-1-yl]carbonyl}-6-phenylpyridin-3-yl)-N′-ethylurea], the IC50 on human ACC2 amounted to 89 nM; on human ACC1, 1400 nM.

On to `CC(C)N1C(=O)OC2(CCCN(C3CCN(C(=O)c4c(NC(N)=O)sc5ccccc45)CC3)C2)C1=O` (centres unmarked) [Example 335, N-(3-{[4-(3-isopropyl-2,4-dioxo-1-oxa-3,7-diazaspiro[4.5]dec-7-yl)piperidin-1-yl]carbonyl}-1-benzothien-2-yl)urea], for which the IC50 on human ACC2 came to 31 nM; at human ACC1, 260 nM.

On to `CCCN1CCC2(CCCN(C3CCN(C(=O)c4c(NC(N)=O)sc5ccccc45)CC3)C2)C1=O` (centres unmarked) [Example 352, N-(3-{[4-(1-oxo-2-propyl-2,7-diazaspiro[4.5]dec-7-yl)piperidin-1-yl]carbonyl}-1-benzothien-2-yl)urea], for which the IC50 at human ACC2 was determined as 41 nM; at human ACC1, 290 nM.

With `CC1(C)CC2(CCCN(C3CCN(C(=O)c4cc(-c5cccnc5)nc5ccccc45)CC3)C2)C(=O)O1` (centres unmarked) [Example 92, 3,3-dimethyl-7-{1-[(2-(pyridin-3-yl)quinolin-4-yl)carbonyl]piperidin-4-yl}-2-oxa-7-azaspiro[4.5]decan-1-one], the values for the IC50 at human ACC2 and on human ACC1 were 110 nM and 4800 nM, respectively.

As for `CCNC(=O)Nc1sc2ccccc2c1C(=O)N1CCC(N2CCCC3(CC(=O)N(C)C3=O)C2)CC1` (centres unmarked) [Example 380, N-ethyl-N′-(3-{[4-(2-methyl-1,3-dioxo-2,7-diazaspiro[4.5]dec-7-yl)piperidin-1-yl]carbonyl}-1-benzothien-2-yl)urea], the IC50 stood at 45 nM on human ACC2 and 210 nM at human ACC1.

`CC1(C)CC2(CN(C3CCN(C(=O)c4c5ccccc5cc5ccccc45)CC3)CCN2)C(=O)O1` (centres unmarked) [Example 153, 9-[1-(9-anthrylcarbonyl)piperidin-4-yl]-3,3-dimethyl-2-oxa-6,9-diazaspiro[4.5]decan-1-one]: the IC50 on human ACC2 was 76 nM; on human ACC1, 1600 nM.
